“Also recorded” adds a separate entry of the source. Read-outs that look alike come from different tables or passages of the source. Marks after values point to notes of the source that are not given here.
How the values were obtained:
HPRP = conditions: in words; cited from earlier work
FP prostanoid receptor = test: FP-activity: contraction of the isolated feline iris sphincter; conditions: concentration producing 50% of maximal response; read-out: EC50 at FP (Cat Iris)
Experimental: (§1) Activity at different prostanoid receptors was measured in vitro in isolated smooth muscle preparations. FP-activity was measured as contraction of the isolated feline iris sphincter. EP1-activity was measured as contraction of the longitudinal smooth muscle of the isolated guinea pig ileum. EP3-activity was measured as inhibition of the twitch response induced by electrical field stimulation in the isolated guinea pig was deferens and as contraction of the longitudinal smooth muscle of the isolated chick ileum. TP-vasoconstrictor activity was measured as contraction of rings of the isolated rat thoracic aorta. Effects on platelets from healthy human donors were measured by incubating platelet-rich plasma with the compounds described herein. Inhibition of aggregation was determined by the ability of the compounds described herein to inhibit platelet aggregation in platelet-rich plasma induced by 20 μM ADP.

vasculature = conditions: in words; cited from earlier work
[1] = Dog intraocular pressure, topical dosing, applanation pneumatonometry; format: in vivo; conditions: dog, dose 0.1%
Experimental: The compounds were prepared at the said concentrations in a vehicle comprising 0.1% polysorbate 80 and 10 mM TRIS base. Dogs and monkeys were treated by administering 25 ul to the ocular surface, the contralateral eye received vehicle as a control. Intraocular pressure was measured by applanation pneumatonometry. Experiments were performed with dogs and monkeys. Dog intraocular pressure was measured immediately before drug administration and at 2, 4 and 6 hour thereafter. Additional studies in monkeys were performed over a 5 day period and drug was administered at times 0, 6, 24, 30, 48, 54, 72, 78, and 96 hours. Monkey intraocular pressure was recorded just before drug administration on each day and at the 2 and 4 hour time intervals between dosing.

[2] = test system: isolated perfused coronary arteries; conditions: cat, cited from earlier work
[3] = in vivo, iv; cited from earlier work
Platelets (Human) = test: Platelet aggregation in platelet-rich plasma from healthy human donors; format: cell-based; conditions: for EC50: Table 1, read-out: EC50 Platelets (Human) Aggregation; for Ability to cause platelet aggregation: in words
Experimental: as §1

[4] = molecular target: T1, TP-receptor (vascular, TPVASC) (Rattus norvegicus, UniProt P34978); test: TP-vasoconstrictor activity: contraction of rings of isolated rat thoracic aorta, without or with SQ29,548; conditions: for Activity in contracting vascular smooth muscle: in words
T1 construct: measured in vitro in isolated smooth muscle preparations; from tissue; host or cells: rings of isolated rat thoracic aorta
T1 sequence (P34978 1-341): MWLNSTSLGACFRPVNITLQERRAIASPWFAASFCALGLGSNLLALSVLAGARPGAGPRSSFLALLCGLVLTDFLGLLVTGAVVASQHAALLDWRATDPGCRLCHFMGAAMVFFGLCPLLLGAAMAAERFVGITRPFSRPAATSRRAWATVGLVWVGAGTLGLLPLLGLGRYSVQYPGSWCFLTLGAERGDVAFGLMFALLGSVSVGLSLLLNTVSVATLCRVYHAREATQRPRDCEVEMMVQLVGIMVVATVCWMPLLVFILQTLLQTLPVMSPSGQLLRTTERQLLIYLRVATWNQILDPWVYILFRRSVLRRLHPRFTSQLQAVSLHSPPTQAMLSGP
Experimental: as §1
In addition, inhibition by the thromboxane A2-receptor antagonist SQ29,548 ([1S-[1α, 2α (5Z), 3α, 4α]]-7-[3-[[2-[phenylamino)carbonyl]-hydrazino]methyl]-7-oxabicyclo[2.2.1] hept-2-yl]-5-heptenoic acid) of vasoconstrictor activity was investigated.

EP3 prostanoid receptor [5] = test: EP3-activity: contraction of longitudinal smooth muscle of isolated chick ileum; conditions: read-out: EC50 at EP3(d) (Chick Ileum)
Experimental: as §1

EP3 prostanoid receptor [6] = test: EP3-activity: inhibition of electrically induced twitch response in isolated guinea pig vas deferens; conditions: read-out: EC50 at EP3(c) (Guinea Pig vas deferens)
Experimental: as §1

platelets [7] = conditions: in words; cited from earlier work
Platelets [8] = test: Effect of Example 4 pretreatment on agonist-induced platelet aggregation; format: cell-based, human
Experimental: as §1, with “Inhibition of aggregation was determined by the ability of the compounds described herein to inhibit platelet aggregation in platelet-rich plasma induced by 20 μM ADP.” left out

rat aorta = conditions: cited from earlier work
TX synthetase = molecular target: T2, TX synthetase (Homo sapiens, UniProt P24557); conditions: in words; cited from earlier work
T2 sequence (P24557 1-533): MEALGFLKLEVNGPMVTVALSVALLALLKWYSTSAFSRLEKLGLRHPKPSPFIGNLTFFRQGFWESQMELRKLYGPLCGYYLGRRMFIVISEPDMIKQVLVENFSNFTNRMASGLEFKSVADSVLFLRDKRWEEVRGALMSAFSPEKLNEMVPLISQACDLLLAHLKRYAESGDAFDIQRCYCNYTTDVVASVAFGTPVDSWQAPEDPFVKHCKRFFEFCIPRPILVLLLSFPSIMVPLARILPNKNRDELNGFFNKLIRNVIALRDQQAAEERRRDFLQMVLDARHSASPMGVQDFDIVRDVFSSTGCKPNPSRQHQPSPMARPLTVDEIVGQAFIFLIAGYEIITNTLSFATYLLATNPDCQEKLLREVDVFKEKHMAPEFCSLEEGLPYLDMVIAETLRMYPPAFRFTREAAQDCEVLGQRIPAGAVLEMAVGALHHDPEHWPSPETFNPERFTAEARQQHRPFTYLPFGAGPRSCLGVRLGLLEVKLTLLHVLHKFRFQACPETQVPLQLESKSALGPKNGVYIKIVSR

rabbit PRP = conditions: in words; cited from earlier work
TXA2 receptor = molecular target: T3, TXA2 receptor (Homo sapiens, UniProt P21731); conditions: in words; cited from earlier work
T3 sequence (P21731 1-343): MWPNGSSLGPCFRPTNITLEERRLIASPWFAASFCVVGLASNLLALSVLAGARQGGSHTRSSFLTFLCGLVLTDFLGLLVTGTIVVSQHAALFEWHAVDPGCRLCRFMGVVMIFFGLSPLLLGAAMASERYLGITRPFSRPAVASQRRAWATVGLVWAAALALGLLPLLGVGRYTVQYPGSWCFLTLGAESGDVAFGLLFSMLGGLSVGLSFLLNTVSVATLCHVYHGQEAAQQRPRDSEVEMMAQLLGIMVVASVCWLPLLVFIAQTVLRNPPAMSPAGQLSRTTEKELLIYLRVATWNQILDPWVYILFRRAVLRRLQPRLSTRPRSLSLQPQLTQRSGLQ

[9] = Table 1, read-out: EC50 at TPVASC (Rat Aorta)

Compound: CCCCC[C@H](O)/C=C/C1C[C@H]2CC(O2)[C@@H]1C/C=C\CCCC(=O)O (stereo partly drawn) [Example 2]
- Inhibition of PGH2-induced aggregation of HPRP (HPRP): Inhibitor of PGH2-induced ag- gregation of HPRP^1

Compound: CCCCC[C@H](O)/C=C/[C@@H]1[C@@H](C/C=C\CCCCO)[C@@H]2C[C@H]1OC(=O)O2 [Example 4]
- EC50 (FP prostanoid receptor): 485 nM
- Action on the vasculature (vasculature): Potent TXA2-like agonist
- Intraocular pressure change ([1]; 2 HR after dosing): −6.7**
- Intraocular pressure change ([1]; 4 HR after dosing): −7.7**
- Intraocular pressure change ([1]; 6 HR after dosing): −8.5**
- Constriction of isolated perfused coronary arteries ([2]; in words): profound constric- tion
- Constriction of isolated perfused coronary arteries, potency relative to TXB2 [2]: 10^1 × TXB2
- Ischemic damage in the heart during coronary insufficiency [3]: Exacerbated ischemic damage
- EC50 (Platelets (Human)): > 10000 nM
- Ability to cause platelet aggregation (Platelets (Human)): no or minimal ability; also recorded: neither causes platelet aggregation
- EC50 [4, 9]: 1 nM
- EC50 ([4]; absence of SQ29,548, read-out: EC50 at TPVASC-receptor, rat aorta): 0.9 nM
- Activity in contracting vascular smooth muscle [4]: pronounced activity
- EC50 ([4]; presence of SQ29,548 (1 uM), read-out: EC50 at TPVASC-receptor, rat aorta): 454 nM
- EC50 (EP3 prostanoid receptor [5]): > 10000 nM
- EC50 (EP3 prostanoid receptor [6]): 2930 nM
- Action on platelets (platelets [7]): profound TXA antagonist
- Platelet aggregation after Example 4 pretreatment (Platelets [8]; agonist 2 μM ADP, 10^-6 M Example 4): 73.1 ± 14.3 % of max response
- Platelet aggregation after Example 4 pretreatment (Platelets [8]; agonist 2 μM ADP, 10^-7 M Example 4): 68.3 ± 12.9 % of max response
- Platelet aggregation after Example 4 pretreatment (Platelets [8]; agonist 20 μM ADP, 10^-6 M Example 4): 97.6 ± 1.8 % of max response
- Platelet aggregation after Example 4 pretreatment (Platelets [8]; agonist 20 μM ADP, 10^-7 M Example 4): 99.9 ± 1.4 % of max response
- Platelet aggregation after Example 4 pretreatment (Platelets [8]; agonist 800 μM Arachidonic Acid, 10^-6 M Example 4): 98.8 ± 1.1 % of max response
- Platelet aggregation after Example 4 pretreatment (Platelets [8]; agonist 800 μM Arachidonic Acid, 10^-7 M Example 4): 98.0 ± 1.8 % of max response
- Platelet aggregation after Example 4 pretreatment (Platelets [8]; agonist 3.3 × 10-7 U46619, 10^-6 M Example 4): 94.2 ± 2.8 % of max response
- Platelet aggregation after Example 4 pretreatment (Platelets [8]; agonist 3.3 × 10-7 U46619, 10^-7 M Example 4): 93.8 ± 2.3 % of max response
- Platelet aggregation after Example 4 pretreatment (Platelets [8]; agonist 3.3 × 10-8 Example 7, 10^-6 M Example 4): −7.3 + 0.7 % of max response
- Platelet aggregation after Example 4 pretreatment (Platelets [8]; agonist 3.3 × 10-8 Example 7, 10^-7 M Example 4): −9.0 + 1.6 % of max response
- Platelet aggregation after Example 4 pretreatment (Platelets [8]; agonist 10-6 Example 7, 10^-6 M Example 4): 96.5 ± 0.9 % of max response
- Platelet aggregation after Example 4 pretreatment (Platelets [8]; agonist 10-6 Example 7, 10^-7 M Example 4): 95.3 ± 0.9 % of max response
- Platelet aggregation after Example 4 pretreatment (Platelets [8]; agonist 10-6 U46619, 10^-6 M Example 4): 96.0 ± 0.8 % of max response
- Platelet aggregation after Example 4 pretreatment (Platelets [8]; agonist 10-6 U46619, 10^-7 M Example 4): 94.6 ± 2.6 % of max response
- Platelet aggregation after Example 4 pretreatment (Platelets [8]; agonist 10-7 Example 7, 10^-6 M Example 4): 99.5 ± 1.7 % of max response
- Platelet aggregation after Example 4 pretreatment (Platelets [8]; agonist 10-7 Example 7, 10^-7 M Example 4): 97.8 ± 1.7 % of max response
- Platelet aggregation after Example 4 pretreatment (Platelets [8]; agonist 10-7 U46619, 10^-6 M Example 4): −5.6 + 0.9 % of max response
- Platelet aggregation after Example 4 pretreatment (Platelets [8]; agonist 10-7 U46619, 10^-7 M Example 4): −5.5 + 1.1 % of max response
- Platelet aggregation after Example 4 pretreatment (Platelets [8]; agonist 10-8 Example 7, 10^-6 M Example 4): −8.0 + 2.9 % of max response
- Platelet aggregation after Example 4 pretreatment (Platelets [8]; agonist 10-8 Example 7, 10^-7 M Example 4): −8.4 + 0.9 % of max response
- Inhibition of ADP or arachidonic acid induced platelet aggregation (Platelets [8]; in words): did not inhibit

Compound: CCCCCC(O)/C=C/C1C2CC(OC(=O)O2)C1C/C=C\CCCC(N)=O (stereo not drawn) [Example 15, 7-[6-carboamino-2-cis-hexenyl]-6-[3α-hydroxy-1-trans-octenyl]-3-oxo-2,4-dioxobicyclo [3.2.1] octane]
- Contraction of rat aortic strips relative to TXA2 (rat aorta): 0.02 × TXA2
- EC50 (FP prostanoid receptor): 387 nM
- EC50 (Platelets (Human)): 3110 nM
- Ability to cause platelet aggregation (Platelets (Human)): no or minimal ability
- EC50 [4, 9]: 58 nM
- Activity in contracting vascular smooth muscle [4]: pronounced activity
- Effect on TX (TXA2) synthetase (TX synthetase): did not
- Aggregation of rabbit PRP (rabbit PRP): did not aggre-
- Antagonism of the aggregatory effect of TXA2 (rabbit PRP): did not

Compound: CCCCCC(O)/C=C/C1C2CC(OC(=O)O2)C1C/C=C\CCCC(=O)NC(C)C (stereo not drawn) [Example 17, 7-[6-carboisopropylamino-2-cis-hexenyl]-6-[3α-hydroxy-1-trans-octenyl]-3-oxo-2,4-dioxobicyclo [3.2.1] octane]
- EC50 (FP prostanoid receptor): 3020 nM
- TXA2-like activity (TXA2 receptor): Mixture of C-15 epimers has stong TXA2-like activity^14
- EC50 [4, 9]: 324 nM

Reference: patent US20030109571A1, “Thromboxane ligands without blood clotting side effects” (ALLERGAN SALES, INC., priority 1993, published 2003)
